In the NIST ThermoML archive (doi:10.1016/j.jct.2005.09.005):

Assay: molar heat capacity at constant pressure
Details: 101.33 kPa, Vacuum adiabatic calorimetry

[2H]O[2H] [water-d2]
molar heat capacity at constant pressure [J/K/mol]
Details | Crystal | Liquid
5 K | 0.0363 | –
6.58 K | 0.0659 | –
7.08 K | 0.141 | –
7.56 K | 0.12 | –
8.12 K | 0.158 | –
8.61 K | 0.19 | –
9.07 K | 0.222 | –
9.51 K | 0.261 | –
9.94 K | 0.305 | –
10 K | 0.315 | –
10.37 K | 0.358 | –
10.8 K | 0.407 | –
11.22 K | 0.462 | –
11.65 K | 0.523 | –
12.68 K | 0.659 | –
13.4 K | 0.774 | –
14.11 K | 0.8996 | –
14.93 K | 1.051 | –
15 K | 1.07 | –
15.65 K | 1.193 | –
16.38 K | 1.337 | –
17.11 K | 1.492 | –
17.84 K | 1.652 | –
18.58 K | 1.814 | –
19.33 K | 1.982 | –
20 K | 2.125 | –
20.08 K | 2.152 | –
21.87 K | 2.524 | –
24.35 K | 3.102 | –
25 K | 3.246 | –
26.84 K | 3.651 | –
29.35 K | 4.206 | –
30 K | 4.322 | –
31.87 K | 4.729 | –
34.41 K | 5.231 | –
36.93 K | 5.723 | –
39.46 K | 6.213 | –
40 K | 6.304 | –
41.98 K | 6.674 | –
44.5 K | 7.12 | –
47.01 K | 7.558 | –
49.52 K | 8.018 | –
50 K | 8.154 | –
52.01 K | 8.514 | –
54.5 K | 9.012 | –
56.99 K | 9.486 | –
59.48 K | 9.885 | –
60 K | 9.968 | –
62.01 K | 10.32 | –
64.5 K | 10.83 | –
66.98 K | 11.22 | –
69.45 K | 11.66 | –
70 K | 11.72 | –
71.93 K | 12.02 | –
74.43 K | 12.44 | –
76.9 K | 12.74 | –
79.38 K | 13.19 | –
80 K | 13.39 | –
81.85 K | 13.77 | –
82.58 K | 13.86 | –
84.31 K | 14.14 | –
84.89 K | 14.3 | –
87.37 K | 14.74 | –
89.84 K | 15.12 | –
90 K | 15.16 | –
92.31 K | 15.57 | –
94.78 K | 15.98 | –
97.24 K | 16.41 | –
99.71 K | 16.82 | –
100 K | 16.89 | –
102.17 K | 17.25 | –
104.63 K | 17.71 | –
107.09 K | 18.15 | –
109.53 K | 18.67 | –
110 K | 18.7 | –
111.98 K | 19.03 | –
114.42 K | 19.58 | –
116.87 K | 19.92 | –
119.31 K | 20.41 | –
120 K | 20.48 | –
121.79 K | 20.81 | –
124.23 K | 21.21 | –
126.67 K | 21.62 | –
129.11 K | 22.03 | –
130 K | 22.2 | –
131.54 K | 22.45 | –
133.98 K | 22.91 | –
136.41 K | 23.27 | –
138.85 K | 23.7 | –
140 K | 23.89 | –
141.28 K | 24.08 | –
143.71 K | 24.5 | –
146.14 K | 24.9 | –
148.57 K | 25.31 | –
150 K | 25.54 | –
151 K | 25.71 | –
153.43 K | 26.1 | –
155.87 K | 26.52 | –
158.32 K | 26.94 | –
160 K | 27.2 | –
160.81 K | 27.33 | –
163.26 K | 27.73 | –
165.71 K | 28.13 | –
168.15 K | 28.55 | –
170 K | 28.83 | –
170.6 K | 28.97 | –
173.05 K | 29.33 | –
175.5 K | 29.73 | –
177.94 K | 30.14 | –
180 K | 30.47 | –
180.39 K | 30.54 | –
182.83 K | 30.96 | –
185.28 K | 31.33 | –
187.72 K | 31.71 | –
190 K | 32.09 | –
190.17 K | 32.11 | –
192.61 K | 32.48 | –
195.05 K | 32.9 | –
197.5 K | 33.29 | –
199.99 K | 33.7 | –
200 K | 33.7 | –
202.44 K | 34.08 | –
204.88 K | 34.48 | –
207.33 K | 34.88 | –
210 K | 35.29 | –
210.91 K | 35.46 | –
213.05 K | 35.74 | –
215.49 K | 36.17 | –
217.93 K | 36.56 | –
220 K | 36.86 | –
220.38 K | 36.96 | –
222.82 K | 37.34 | –
225.26 K | 37.72 | –
227.71 K | 38.06 | –
230 K | 38.45 | –
230.15 K | 38.5 | –
232.58 K | 38.89 | –
235.03 K | 39.22 | –
237.47 K | 39.55 | –
239.91 K | 39.99 | –
240 K | 40.05 | –
242.35 K | 40.38 | –
244.78 K | 40.92 | –
247.23 K | 41.27 | –
249.73 K | 41.6 | –
250 K | 41.64 | –
252.17 K | 41.99 | –
254.61 K | 42.32 | –
257.04 K | 42.71 | –
257.41 K | 42.2 | –
259.48 K | 43.1 | –
260 K | 43.16 | –
261.91 K | 43.48 | –
262.39 K | 43.37 | –
264.34 K | 43.87 | –
266.76 K | 44.33 | –
269.18 K | 44.87 | –
270 K | 44.55 | –
271.59 K | 45.53 | –
273.99 K | 47.53 | –
274.34 K | – | 85.72
276.82 K | 45.8 | 85.38
278.53 K | – | 85.14
280 K | – | 84.97
282.13 K | – | 84.72
285.21 K | – | 84.64
286.94 K | – | 84.47
289.3 K | – | 84.14
290 K | – | 84.05
291.67 K | – | 83.97
294.02 K | – | 83.81
296.38 K | – | 83.72
298.15 K | – | 83.47
298.72 K | – | 83.56
300 K | – | 83.39
301.66 K | – | 83.39
305.18 K | – | 83.14
308.67 K | – | 83.08
310 K | – | 82.96
312.17 K | – | 82.92
315.64 K | – | 82.85
319.1 K | – | 82.78
320 K | – | 82.7
322.54 K | – | 82.69
325.97 K | – | 82.58
329.39 K | – | 82.62
330 K | – | 82.52
332.72 K | – | 82.55
336.11 K | – | 82.57
339.47 K | – | 82.65
340 K | – | 82.67
342.82 K | – | 82.74
346.15 K | – | 82.71
350 K | – | 82.8
